Laboratory results reported in patent US20230181535A1, “UBIQUITIN-LIGASE INHIBITORS FOR THE TREATMENT OF CANCER” (FUNDACIÓN PROFESOR NOVOA SANTOS, priority 2020, published 2023).

Key:
HT-29 cells [1] = experiment: Immunofluorescence of E-cadherin, HT-29; assay type: cell-based, human
Protocol: For western blot analysis, cells were treated with the indicated inhibitors for 48 h and the whole cell extracts were obtained as described previously. Twenty micrograms of lysates were resolved on a 10% polyacrilamide SDS-PAGE followed by western blot analysis performed as previously described. For immunofluorescence assays cells were grown for 24 h on glass coverslips and treated with the indicated inhibitors for 48 h. Cells were fixed with 4% PFA for 15 min, permeabilized with 0.5% […] and incubated with E-cadherin antibody for 2 h. Coverslips were incubated with fluorescein-tagged secondary antibody (Dakopatts, Sweden) for […]. Finally coverslips were mounted with ProLong Gold antifade reagent (LifeTech, UK) and images were taken in epifluorescence microscope (Olympus) using 40× objective. Immunofluorescence of E-cadherin and DNA content analysis for FIGS. 22-23 were performed culturing of HT-29 human colorectal adenocarcinoma cell line in 384-well plates with densities of 3,000 cells per well in a total volume of 25 μl. After the completion of the staining, four images (2×2 array) of each well were taken with Vala Sciences' SIM™ with a 20× objective. Each image was acquired as a SIM Synthetic Focus with a z-stack range of 6 μm with 1 μm steps. The SIM Synthetic Focus feature will compile a “best focus” images from multiple images. One set of SIM Synthetic Focus images were taken in the DAPI channel for Hoechst 33342 staining, and another set of images were taken in the FITC channel for anti-E-cadherin-AlexaFluor488 labeling and analysed by Structured Illumination Microscopy (SIM™) platform to image the cells and Vala's CyteSeer® Cell-Cell Junction Algorithm to quantify the degree of expression and intracellular location of E-cadherin Vala's CyteSeer® Software can also measure relative DNA content by analyzing Total Integrated Intensity (TII) of the Nuclear Image (Ni) on the Nuclear Mask (Nm). This analysis was performed by Vala Science. Twenty compounds from were assayed in a “blinded” manner, at 2 test concentrations in 6 replicate wells for first assay and 3 replicate for second assay.

[2] = test system: human cryopreserved hepatocytes; experiment: Hepatocyte stability, human; assay type: in vitro ADME; settings: 3 μM
Protocol: Test compound (final substrate concentration 3 μM; final DMSO concentration 0.25%) were pre-incubated at 37° C., prior to the addition of a suspension of cryopreserved hepatocytes (final cell density 0.5×10^6 viable cells/mL in Williams E media supplemented with 2 mM L glutamine and 25 mM HEPES) to initiate the reaction. The reactions were stopped with acetonitrile containing internal standard at the appropriate time points ([…]). The termination plates were centrifuged at 2500 rpm at 4° C. for 30 minute to precipitate the protein. Following the hepatocyte stability assays, the samples were utilized for metabolite profiling. Hepatocyte stability in mouse and human was performed by using the incubation of tested compound (3 μM) with cryopreserved hepatocytes in suspension. Samples were removed at 6 time points over the course of a 60 min experiment and remaining test compound at each time point was analysed by using LC-MS/MS. Then, data was analysed and an intrinsic clearance (CLint) with standard error and half-life (t½) reported.

HT-29 cells [3] = experiment: Soft agar-colony formation assay, HT-29; assay type: cell-based, human; settings: 28 days
Protocol: Soft agar-colony formation assay was performed on 12-well plates in triplicates at a density of 5×10^3 MDCK and MDCK-Hakai cells/well, or 12×10^3 HT29 cells/well. Cells were seeded in medium with 0.5% low-melting agarose over a layer with 0.75% low-melting agarose (Lonza Rockland, Me., USA). Cells were treated with the indicated inhibitors and DMSO was used as vehicle. Treatment was refreshed every 3 days and, after 21 days for MDCK and MDCK-Hakai cells or 28 days for HT29 cells, number of colonies were quantified. Quantification of five randomly-selected fields of each condition was photographed with a Nikon Eclipse-TI microscope (objective 4×). Experiments were conducted with three triplicates and were repeated three times. Data are represented as mean±SD.

LoVo cells = experiment: BrdU proliferation assay, LoVo; assay type: cell-based; settings: 48 h
Protocol: For BrdU assays, 1×10^4 of indicated cells were plated per well into a 96-well plate. After 24 h, cells were treated with the indicated inhibitors for 48 h. Three independent experiments were plated with six replicates per each condition. Cells were treated with […] BrdU for 2 h. BrdU incorporation into newly synthesized DNA was measured using a cell proliferation colorimetric immunoassay kit according to the manufacturer's instructions (Roche, Switzerland). Results are expressed as mean±S.D. Results are represented as percentage of positive cells (mean±S.D) of three independent experiments.

Row | SMILES | E-cadherin expression at cell-cell contacts (immunofluorescence, Image J) (HT-29 cells [1]; 48 hours, 5-100 μM, vs DMSO vehicle control) | compound remaining after 60 min [2] | colony formation in soft agar (HT-29 cells [3]) | E-cadherin levels at cell-cell contacts (immunofluorescence) (HT-29 cells [1]; 48 h, vs DMSO) | cell proliferation (BrdU) (LoVo cells)
1 | O=C(O)c1ccc(-n2nnnc2SCC(O)c2ccc([N+](=O)[O-])cc2)cc1 (stereo not drawn) [MKH1] | significantly increase expression of E-cadherin | 95%-100% |  |  | 
2 | O=C(O)c1ccc(-n2nnnc2SCC(=O)c2ccc([N+](=O)[O-])cc2)cc1 [Hakin-1, 4-(5-[2-(4-nitrophenyl)-2-oxoethyl]thiol-1H-tetrazol-1-yl)benzoic acid] |  | 77.3% | robust inhibition of colony formation | significant increase E-cadherin levels at cell-cell contacts | reduced cell proliferation
